Laboratory results as given in patent publication US10471028B2, “Small molecule efflux pump inhibitors” (UNIVERSITY OF ROCHESTER, priority 2014, dated 2019).

Columns and labels:
[1] = tested on: A. baumannii strain 98-37-09; assay: MEC determination: potentiation of minocycline toward serum grown A. baumannii; format: cell-based, Acinetobacter baumannii; details: for Log-reduction Colony Forming Units (ml^−1): 1×MEC of compound plus minocycline in serum, versus minocycline alone, plating; for MEC: lowest concentration inhibiting growth in 100% human serum with 0.5 μg ml^−1 minocycline, 48 hr
Method: The TimTec ActiProbe-25K diversity-set and Natural Product compound libraries (29,900 compounds total; TimTec, Newark, Del.) were initially screened for putative efflux pump inhibitors by identifying compounds that potentiated the antimicrobial property of a sub-inhibitory concentration of minocycline toward A. baumannii grown in human serum. To do so, A. baumannii strain 98-37-09 was grown for 16 hours in LB medium at 37° C. on a rotary shaker at 225 rpm. Approximately 1×10^5 CFU were then transferred to individual wells of a 96-well round-bottom plate (Corning Costar, Tewksbury, Mass.) containing 100 μL of human serum supplemented with of minocycline (0.5 μg mL^−1; 0.5× minimum inhibitory concentration in serum) and individual members of the Timtec ActiProbe or Natural product library (50 μM). Plates were then incubated at 37° C. for 48 hours. Growth was measured as a function of turbidity. Putative efflux pump inhibitors were identified as compounds that inhibited A. baumannii growth in human serum containing minocycline and were subsequently retested in triplicate, as indicated above. Untreated A. baumannii grown in serum supplemented with minocycline+/−PAβN served as positive and negative controls, respectively. […] Repeat testing in which well constituents were serial diluted and plated on LB agar plates validated that 85 compounds did indeed limit A. baumannii growth in serum supplemented with minocycline, reducing the number of viable colony forming units between 2-6 log cfu in comparison to minocycline alone treated cells.
The MEC was defined as the lowest concentration of test compound required to inhibit the growth of A. baumannii in serum in the presence of 0.5 μg ml^−1 minocycline. Plating confirmed that addition of 1×MEC of each compound elicited ≥1.9-log reduction in A. baumannii cells grown in serum supplemented with minocycline alone (see Table 1).

[2] = tested on: A. baumannii strain 98-37-09; assay: Cellular accumulation of minocycline (HPLC, triple-quadrupole MS); format: cell-based, Acinetobacter baumannii; details: human serum with 0.5 μg mL^−1 minocycline plus test compound (0.5×MEC, 1×MEC), 48 hours
Method: High pressure liquid chromatography and triple-quadrupole mass spectrometry were used to measure the A. baumannii intracellular levels of minocycline during growth in human serum in the absence and presence of each putative efflux pump inhibitor. […] Cultures were incubated for 48 hours with shaking, at which point an aliquot was removed, serially diluted, and plated to determine the number of viable CFU per mixture. The remainder of the cells were pelleted by centrifugation at 900×g at 4° C., washed twice in PBS, mechanically lysed with a FastPrep cell disrupter (MP Biomedicals, Santa Ana, Calif.) for 20 seconds at 5 m s^−1 and the cellular debris was pelleted via centrifugation at 900×g and 4° C. The amount of minocycline present within the supernatant of ruptured cells was measured. Briefly, doxycycline (0.5 μg mL^−1) was first added to each supernatant to serve as an internal control to account for sample-to-sample preparation variability. The supernatant was then combined with acetonitrile (ACN) at a 1:10 ratio and centrifuged at 16,000×g, at 4° C., to collect minocycline and doxycycline. […] residual liquid was evaporated in a speed vacuum for 2 hours at 8,000×g. To quantify the amount of antibiotics retained, sample materials were suspended in 50% acetonitrile, filtered through a 0.2 μm low protein binding hydrophilic membrane (Millipore, Billerica, Mass.) then separated on Shimadzu high performance liquid chromatography instrument (Fisher Scientific) using a BetaBasic C18 reverse phase column (Thermo Scientific). Separation was carried out with two mobile phase solutions consisting of solution (A) water with 0.1% formic acid and solution (B) 100% ACN. The gradient profile of the chromatography runs was as follows: from 0 to 0.1 min 8% solution B, ramp step wise (37% to 60% solution B) from 0.1 to 6.5 min then holding for one minute before ramping down from 60% to 10% from 7.5 to 8 min. This was followed a hold at 10% solution B for one minute. […] The column was equilibrated in 8% solution B at 40° C. and the flow rate was set to 0.2 mL min^−1. Mass spectrometry analysis of fractions was carried out using a Thermo TSQ Quantum Ultra triple quadrupole mass spectrometer (Fisher Scientific). Data were analyzed using Xcalibur software (Thermo Scientific); the following parameters were used to detect minocycline and the internal control doxycycline: 458.208 m/z→282.971 m/z (collision energy=43, tube lens=119) for minocycline and 445.144 m/z→266.900 m/z (collision energy=39, tube lens=127) for doxycycline. Analysis of the raw data was conducted by using the area under the curve calculations with the Genesis algorithm to determine the concentration in each sample. The difference between the peak intensity and the y intercept of pre-established minocycline and doxycycline standard curves was divided by the slope of the standard curve to quantify the amount of minocycline within each sample. The total concentration of minocycline within each cell was calculated by normalizing to the number of cells within each corresponding culture.

Row | Structure (SMILES) | Log-reduction Colony Forming Units (ml^−1) [1] [log] | MEC [1] [µg/mL] | Minocylcine Per Cell (femtomoles cell^−1) [2] [femtomoles cell^−1]
1 | N#CC1=C(N)n2c(s/c(=C\c3ccccc3Cl)c2=O)=C(C#N)C1c1ccccc1Cl (stereo not drawn) [ST006953] | 2.71 | 4 | 4.31E−08
2 | Cc1ccc(C2N(Cc3ccccc3)CCN2Cc2ccccc2)s1 [ST008277] | 5.19 | 4 | 4.41E−08
3 | Cc1cc(O)c(C(C)C)cc1C1(c2cc(C(C)C)c(O)cc2C)OC(=O)c2ccccc21 [ST009495] | 2.23 | 2 | 4.7E−08
4 | Oc1ccccc1/C=N/c1nccs1 [ST009531] | 2.77 | 2 | 5.88E−09
5 | NS(=O)(=O)c1ccc(/N=C/c2ccccc2O)cc1 [ST009655] | 6.67 | 2 | 2.61E−07
6 | Cc1ccc(/C=N/c2ccc(S(N)(=O)=O)cc2)cc1 [ST009696] | 5.67 | 4 | 8.2E−09
7 | CCOC(=O)C1=C(N)OC2=C(C(=O)CCC2)C1c1sccc1C (stereo not drawn) [ST009847] | 4.97 | 2 | 2.54E−07
8 | N#CC1=C(N)OC2=C(C(=O)CCC2)C1c1c(Cl)cccc1Cl (stereo not drawn) [ST009850] | 2.47 | 2 | 7.25E−08
9 | O=C(N/N=C/c1cccs1)c1ccncc1 [ST010260] | 2.66 | 16 | 3.27E−08
10 | NS(=O)(=O)c1ccc(/N=C/c2cc(Br)ccc2O)cc1 [ST010344] | 5.29 | 32 | 2.98E−08
11 | O=S(=O)(Nc1nccs1)c1ccc(/N=C/c2ccc3c(c2)OCO3)cc1 [ST012901] | 2.66 | 2 | 4.16E−09
12 | N=C(N)NS(=O)(=O)c1ccc(/N=C/c2c(O)ccc3ccccc23)cc1 [ST012929] | 4.64 | 32 | 2.74E−08
13 | O=S(=O)(Nc1nccs1)c1ccc(/N=C/c2c(O)ccc3ccccc23)cc1 [ST012934] | 4.42 | 32 | 2.28E−08
14 | O=[N+]([O-])c1cc(/C=N/c2ccc(S(=O)(=O)NC3NC=CS3)cc2)c2c(c1)COCO2 (stereo not drawn) [ST012941] | 6.23 | 64 | 8.12E−09
15 | O=S(=O)(Nc1nccs1)c1ccc(/N=C/c2cc(Cl)cc3c2OCOC3)cc1 [ST012955] | 4.42 | 32 | 1.04E−08
16 | C/C(=N\c1ccc(S(=O)(=O)Nc2nccs2)cc1)c1ccc(O)cc1O [ST012963] | 3.90 | 32 | 3.23E−08

Row | Structure (SMILES) | Log-reduction Colony Forming Units (ml^−1) [1] [log] | MEC [1] [µg/mL] | Minocylcine Per Cell (femtomoles cell^−1) [2] [femtomoles cell^−1]
17 | NNC(=O)CSCc1ccc(Cl)cc1 [ST020992] | 7.43 | 2 | 1.53E−07
18 | C/C(Cn1nnc([N+](=O)[O-])n1)=N\NC(=O)CC#N [ST025773] | 8.00 | 32 | 1.04E−07
19 | CCCCCCCN1C(=O)/C(=c2\sc3n(c2=O)C(c2ccc(OC(=O)c4ccco4)cc2)C(C(=O)OC)=C(C)N=3)c2ccccc21 (stereo not drawn) [ST029434] | 3.02 | 64 | 1.73E−08
20 | N#Cc1c(/N=C/c2ccco2)sc2c1CCCC2 [ST033063] | 1.93 | 2 | 5.84E−08
21 | COc1ccc(C=O)cc1Cn1nnc2ccccc21 [ST033235] | 2.21 | 32 | 6.652E−08
22 | Cc1cccc(N(CC(=O)NC23CC4CC(CC(C4)C2)C3)S(=O)(=O)c2ccccc2)c1 [ST034012] | 2.00 | 2 | 1.55E−07
23 | COc1ccccc1C1N(Cc2ccccc2)CCN1Cc1ccccc1 [ST036365] | 3.50 | 4 | 3.59E−08
24 | CCOC(=O)C1=C(CN2CCCCC2)NC(=O)NC1c1ccc2c(c1)OCO2 (stereo not drawn) [ST058478] | 6.33 | 64 | 1.52E−07
25 | CN1CCN(C(=O)CCSc2ccccc2)CC1 [ST058672] | 5.97 | 4 | 3.2E−07
26 | CC(C)CCOC(=O)C(NS(=O)(=O)c1ccc2c(c1)CCN2S(C)(=O)=O)c1ccccc1 (stereo not drawn) [ST058811] | 6.17 | 4 | 2.48E−07
27 | CCOc1cc(C(=O)N2CC(=O)Nc3ccccc32)cc(OCC)c1OCC [ST059010] | 6.11 | 32 | 3.78E−08
28 | Nc1nnc(SCC(=O)N2CCCC2)s1 [ST059421] | 6.31 | 4 | 1.27E−07
29 | CCN(CC)S(=O)(=O)c1ccc(NC(=O)C2CC(=O)N(c3ccc(OC)cc3)C2)cc1 (stereo not drawn) [ST059822] | 6.23 | 4 | 1.36E−07
30 | CCCCOc1ccc(C(=O)NCCC2=CCCCC2)cc1 [ST060056] | 5.38 | 4 | 4.22E−08
31 | COc1ccc(-c2c3c([nH]c(=O)c2C#N)CCCCC3)cc1 [ST060355] | 6.94 | 32 | 1.23E−08
